Results from patent US20100292316A1, “IMPROVED THERAPEUTIC METHODS AND COMPOSITIONS COMPRISING CHROMAN RING COMPOUNDS” (Research Development Foundation, priority 2007, published 2010).

How the values were obtained:
[1] = system: PARP; experiment: PARP cleavage (p84) by Western blot, densitometry; assay type: cell-based, human; conditions: LNCaP, 40 μM α-TEA 15 h
Description: (§1) Whole-cell protein extracts were prepared as described previously (Yu et al., 1999), and 50 μg of protein was loaded per lane, separated using SDS-PAGE on a 10-15% gel under reducing conditions, and electroblotted onto a nitrocellulose membrane ([…] Optitran BA-S-supported nitrocellulose; Schleicher and Schuell, Keene, N.H.). Equal loading was verified using GAPDH antibody. Primary rabbit antibodies with specificity for PARP and primary goat antibody with specificity for Arg were purchased from Santa Cruz Biotechnology (Santa Cruz, Calif.). Horseradish peroxidase conjugated goat anti-rabbit or horseradish goat anti-mouse secondary antibody was purchased from Jackson Immunoresearch Laboratory (West Grove, Pa.). Horseradish peroxidase-conjugated donkey anti-goat serum was purchased from Santa Cruz Biotechnology. Immune complexes were visualized using enhanced chemiluminescence detection (Pierce Chemical Co., Rockford, Ill.). Fold differences in level of chemiluminescence were determined by densitometric analyses.
Primary mouse antibody specific for p73 was purchased from IMGENEX (San Diego, Calif.). Primary mouse antibody specific for caspase 8 was purchased from Cell Signaling Technology (Beverly, Mass.). Horseradish peroxidase conjugated goat anti-rabbit or goat anti-mouse secondary antibodies were purchased from Jackson Immunoresearch Laboratory (West Grove, Pa.). Horseradish peroxidase-conjugated donkey […] serum was purchased from Santa Cruz Biotechnology. Immune complexes were visualized using enhanced chemiluminescence detection (Pierce Chemical Co., Rockford, Ill.). Fold differences in level of chemiluminescence were determined by densitometric analyses.

[2] = system: NOXA; experiment: NOXA mRNA (RT-PCR) and protein (Western blot) levels; assay type: cell-based, human; conditions: for peak NOXA mRNA levels, fold higher than VEH control / NOXA protein levels, fold higher than VEH control: 40 μM α-TEA; for NOXA protein levels, fold higher than VEH control: 24 h
Description: as §1
Total RNA was isolated from cells using RNeasy Protect Mini kit (Qiagen, Valencia, Calif.) according to manufacturer's instruction. Reverse transcription was performed as described above except using 15 μg of total RNA as template. Polymerase chain reaction (PCR) with Arg primers 30 cycles in volumes of 50 μl according to the manufacturer's protocol (Taq PCR Master Mix Kit; Qiagen, Valencia, Calif.). Primers used in the analyses were: Arg, forward (5′-CAGTGATGCCTCCACCTCAA-3′; SEQ ID NO:2) and reverse (5′-TTTCCCTCTCCCCTCAGAAAT-3′; SEQ ID NO:3) and for β-actin (loading control), forward (5′-GGCGGCACCACCATGTACCCT-3′; SEQ ID NO:4) and reverse (5′-AGGGGCCGGACTCGTCATACT-3′; SEQ ID NO:5) (Invitrogen, Carlsbad, Calif.). The amplification reaction involved denaturation at 95° C. for 30 seconds, annealing at 52° C. for 30 seconds, and extension at 72° C. for 30 seconds (for Arg) using a PTC-225 thermal cycler (MJ Research, San Francisco, Calif.). The PCR products were resolved on 1% agarose gels and visualized by ethidium bromide staining.
To confirm the microarray data, semi-quantative RT-PCR and Western blot analyses were carried out to measure the change in mRNA and protein level of NOXA using estrogen nonresponsive MDA-MB-435 and estrogen responsive MCF-7 human breast cancer cells. Assays were preformed as describide above using NOXA specific antibodies (purchased from Santa Cruz Biotechnology (Santa Cruz, Calif.)) and NOXA sepcific PCR primers (forward (5′-CGTGTGTAGTTGGCATCTCC-3′) and reverse (5′-GCCCCAAGTAACCCTCCTAT-3′)). In MCF-7 cells, α-TEA induced NOXA mRNA starting at 3 h, peaking at 15 h (FIG. 9A, left top panel). In MDA-MB-435 cells, α-TEA induced NOXA mRNA starting at 3 h, peaking at 6 h (FIG. 9A, right top panel). In both cell lines, protein levels of NOXA were increased at 15 and 24 h after α-TEA treatments (FIG. 9C, top panel). […] In MCF-7 cells, peak NOXA mRNA levels at 15 h were 1.5-fold higher than the VEH control and NOXA protein levels at 24 h were 7.6-fold higher than the VEH control. Upregulation of NOXA protein levels is correlated with PARP cleavage which is an indicator of cells undergoing apoptosis (Wolf and Green, 1999) (FIG. 9C, second panel). GAPDH levels served to help verify lane loads (FIG. 9C, bottom panel). […] NOXA protein levels were also assessed in other cell lines including MDA-MB-231 and T47D human breast cancer cell lines, immortalized, but nontumorigenic MCF-10A breast epithelial cells as well as human normal mammary epithelial cell line (HMEC) (Table 3). The ability of α-TEA to induce NOXA and induce apoptosis plus the p53 status based on the literature is summarized (Table 3).

**Q.** What does the source list for `Cc1c(C)c2c(c(C)c1OCC(=O)O)CC[C@@](C)(CCC[C@H](C)CCC[C@H](C)CCCC(C)C)O2` [α-TEA]?
**A.** PARP cleavage in comparison to empty vector control, cells overexpressing Flag-tagged wild type FOXO1 [1]: 160%; PARP cleavage in comparison to empty vector control, cells overexpressing constitutively active Flag-FOXO1 AAA [1]: 230%; Ability of α-TEA to induce NOXA expression ([2]; HMEC): No; Ability of α-TEA to induce NOXA expression ([2]; MCF-7): Yes; peak NOXA mRNA levels, fold higher than VEH control ([2]; MCF-7 cells, 15 h): 1.5 fold; NOXA protein levels, fold higher than VEH control ([2]; MCF-7 cells): 7.6 fold; Ability of α-TEA to induce NOXA expression ([2]; MCF-10A): Yes; Ability of α-TEA to induce NOXA expression ([2]; MDA-MB-231): Yes; Ability of α-TEA to induce NOXA expression ([2]; MDA-MB-435): Yes; peak NOXA mRNA levels, fold higher than VEH control ([2]; MDA-MB-435 cells, 6 h): 2.6 fold; NOXA protein levels, fold higher than VEH control ([2]; MDA-MB-435 cells): 16.8 fold; Ability of α-TEA to induce NOXA expression ([2]; T47D): No
